{
  "source": "patent US8247220B2",
  "about": "“Optical indicator for detecting bacterial pathogens” (Kimberly-Clark Worldwide, Inc., priority 2008, dated 2012)",
  "key": {"[1]": {"experiment": "Bacterial cell-wall components on dye-coated substrate and titration with Reichardt's dye", "details": "5%, 1%, 0.2% (wt/wt) solutions (pure LPS 0.1%, 0.02%, 0.004%); both experimental set-ups"}, "vegetative organism": {"tested_on": "vegetative organism", "design": "species or system Anthracis bacillus"}, "[2]": {"tested_on": "Influenza A (ATCC # VR-544)", "experiment": "Reichardt's dye-treated samples with upper respiratory viruses", "details": "compared with Salmonella bacterial control at a similar concentration"}, "G. vaginalis": {"tested_on": "G. vaginalis", "experiment": "Titration of microorganism spot with Reichardt's dye solution", "details": "10^7 CFU/ml, 100 μl; dye 160 mg in 10 g acetonitrile, 10 μl aliquots"}, "Salmonella": {"tested_on": "Salmonella", "experiment": "Dye-coated absorbent substrate tested with Salmonella-containing liquid", "details": "100 microliter aliquots on dye-coated substrate", "excerpt": "Gibraltar Labs (Fairfield, N.J.) placed 100 microliter aliquots of the solutions onto the absorbent substrate."}, "C. albicans": {"tested_on": "C. albicans", "experiment": "Titration of microorganism spot with Reichardt's dye solution", "details": "10^7 CFU/ml, 100 μl; dye 160 mg in 10 g acetonitrile, 10 μl aliquots"}, "gram-positive bacteria": {"tested_on": "gram-positive bacteria", "experiment": "Visible colour change of Reichardt's dye-coated absorbent substrate, serial dilutions of bacteria", "details": "100 μl aliquot on dye-coated substrate, colour change visible to the eye"}, "autoclaved S. aureus": {"tested_on": "autoclaved S. aureus", "experiment": "Autoclaved bacteria sprayed with Reichardt's dye indicator spray", "details": "S. aureus 10^6 CFU/mL autoclaved; spray 160 mg in 10 g isopropanol", "experimental": "In order to verify that the bacterial cell wall plays a critical role in this reaction, a vial of S. aureus (10^6 CFU/mL) was autoclaved before testing with the indicator spray (160 mg Reichardt's Dye in 10 g of isopropanol). Autoclaving kills bacteria by essentially blowing the cell wall apart. The steam from the autoclave penetrates the bacteria and rips the membrane apart."}, "Rhinovirus Type 42": {"tested_on": "Rhinovirus Type 42", "experiment": "Reichardt's dye-treated samples with upper respiratory viruses", "details": "compared with Salmonella bacterial control at a similar concentration"}, "Lactobacillus": {"tested_on": "Lactobacillus", "experiment": "Titration of microorganism spot with Reichardt's dye solution", "details": "10^7 CFU/ml, 100 μl; dye 160 mg in 10 g acetonitrile, 10 μl aliquots"}, "S. aureus [3]": {"tested_on": "S. aureus", "experiment": "Standard curve on dye-coated paper, Delta E against log CFU/mL", "details": "paper coated with 80 mg/10 g acetonitrile, 100 μL aliquots, spectrophotometer CIELAB"}, "P. aeruginosa": {"tested_on": "P. aeruginosa", "experiment": "Titration of microorganism spot with Reichardt's dye solution", "details": "10^7 CFU/ml, 100 μl; dye 160 mg in 10 g acetonitrile, 10 μl aliquots"}, "A. niger": {"tested_on": "A. niger", "experiment": "Titration of microorganism spot with Reichardt's dye solution", "details": "10^5 CFU/mL, 100 μl; dye 160 mg in 10 g acetonitrile, 10 μl aliquots"}, "[4]": {"tested_on": "bacterial spores such as Anthracis bacillus"}, "S. aureus [5]": {"tested_on": "S. aureus", "experiment": "Titration of microorganism spot with Reichardt's dye solution", "details": "10^7 CFU/ml, 100 μl; dye 160 mg in 10 g acetonitrile, 10 μl aliquots", "excerpt": "(§1) 10^7 CFU/ml of S. aureus."}, "E. coli": {"tested_on": "E. coli", "experiment": "Titration of microorganism spot with Reichardt's dye solution", "details": "10^7 CFU/ml, 100 μl; dye 160 mg in 10 g acetonitrile, 10 μl aliquots", "excerpt": "as §1"}, "[6]": {"tested_on": "Streptococcus pyogenes (ATCC # 10782)", "experiment": "Reichardt's dye-treated samples with upper respiratory pathogens", "details": "100 microliters", "excerpt": "(§2) It has been observed in prior experiments that gram positive bacteria elicit a stronger de-colorization response than other types of microorganisms."}, "[7]": {"tested_on": "Haemophilus influenzae (ATCC # 49247)", "experiment": "Reichardt's dye-treated samples with upper respiratory pathogens", "details": "100 microliters", "excerpt": "as §2"}, "[8]": {"tested_on": "Moraxella lacunata (ATCC # 17972)", "experiment": "Reichardt's dye-treated samples with upper respiratory pathogens", "details": "100 microliters", "excerpt": "as §2"}, "[9]": {"tested_on": "Streptococcus pneumoniae (ATCC # 10015)", "experiment": "Reichardt's dye-treated samples with upper respiratory pathogens", "details": "100 microliters", "excerpt": "as §2"}, "S. aureus protoplasts": {"tested_on": "S. aureus protoplasts", "experiment": "Protoplasts on label coated with Reichardt's dye", "details": "100 μL aliquot, label coated with 80 mg/10 g acetonitrile, approximately 5 minutes", "experimental": "An additional test to verify reaction with the cell wall was performed by creating protoplasts through enzymatic digestion of the bacterial cell wall. […] Louis, Mo.) suspended in TM buffer (0.05 M Tris-HCl, pH 7.4, 20 mM MgCl2) with 15% (w/v) of sucrose (Sigma-Aldrich, St. Louis, Mo.). The reaction was carried out for one hour at 30° C., after which the solution was centrifuged at 10,000×g, and rinsed twice with TM buffer containing 13% (w/v) sucrose according to methods detailed by Taku and Fan (The Journal of Biological Chemistry, 1979). The solution containing protoplasts was reacted (100 μL aliquot) with an Avery label coated with Reichardt's dye (80 mg/10 g acetonitrile). Untreated bacteria was diluted 10 fold in the TM/13% sucrose buffer (without lysozyme) and were placed on the label as a positive control."}},
  "data": [
    {"compound": "C[C@@H](O[C@H]1[C@H](O)[C@@H](CO)OC(O)[C@@H]1N)C(=O)O", "note": "(stereo partly drawn) [Muramic acid, muramic acid]", "values": [
      {"measurement": "de-colorization of Reichardt's dye by cell-wall component", "setting": "[1]", "result": "strongest reaction, resulting in a near instantaneous de-colorization of the dye"}
    ]},
    {"compound": "[O-]c1c(-c2ccccc2)cc(-[n+]2c(-c3ccccc3)cc(-c3ccccc3)cc2-c2ccccc2)cc1-c1ccccc1", "note": "[Reichardt's dye, 4-(2,4,6-triphenylpyridinium-1-yl)-2,6-diphenylphenolate]", "values": [
      {"measurement": "de-colorization of the dye", "setting": "vegetative organism", "result": "de-colorization occurred"},
      {"measurement": "de-colorization of the dye", "setting": "[2]", "result": "markedly less de-colorization"},
      {"measurement": "Amount of Dye Required for Persistent Color", "setting": "G. vaginalis", "result": 90, "unit": "µL"},
      {"measurement": "de-colorization of the dye", "setting": "Salmonella", "result": "decolorized the dye"},
      {"measurement": "Amount of Dye Required for Persistent Color", "setting": "C. albicans", "result": 70, "unit": "µL"},
      {"measurement": "lower limit for indication of gram-positive bacteria", "setting": "gram-positive bacteria", "result": 100, "unit": "CFU/ml"},
      {"measurement": "de-colorization of the dye", "setting": "autoclaved S. aureus", "result": "no de-colorization was observed"},
      {"measurement": "de-colorization of the dye", "setting": "Rhinovirus Type 42", "result": "markedly less de-colorization"},
      {"measurement": "Amount of Dye Required for Persistent Color", "setting": "Lactobacillus", "result": 110, "unit": "µL"},
      {"measurement": "responsiveness of the dye (Delta E)", "setting": "S. aureus [3]", "result": "dose-dependent"},
      {"measurement": "Amount of Dye Required for Persistent Color", "setting": "P. aeruginosa", "result": 80, "unit": "µL"},
      {"measurement": "Amount of Dye Required for Persistent Color", "setting": "A. niger", "result": 50, "unit": "µL"},
      {"measurement": "sensitivity of the dye to bacterial spores", "setting": "[4]", "result": "not sufficiently sensitive"},
      {"measurement": "Amount of Dye Required for Persistent Color", "setting": "S. aureus [5]", "result": 90, "unit": "µL"},
      {"measurement": "Amount of Dye Required for Persistent Color", "setting": "E. coli", "result": 90, "unit": "µL"},
      {"measurement": "de-colorization of dye-treated samples", "setting": "[6]", "result": "de-colorized"},
      {"measurement": "de-colorization of dye-treated samples", "setting": "[7]", "result": "de-colorized"},
      {"measurement": "de-colorization of dye-treated samples", "setting": "[8]", "result": "de-colorized"},
      {"measurement": "de-colorization of dye-treated samples", "setting": "[9]", "result": "de-colorized"},
      {"measurement": "de-colorization of the dye", "setting": "S. aureus protoplasts", "result": "minimal de-colorization"}
    ]}
  ]
}
